Series [1] concerns YFV. The class given is cell-based, Yellow Fever Virus.
Series [2] relates to RSV.
The nature of series [3]: in vitro. To be noted: Mesocricetus auratus (hamster).
The nature of series [4]: in vitro. Conditions: Cercopithecus aethiops (monkey), Vero76 CC50.
The test system of series [5] is YFV. The series is described as follows: microbe, parasite or virus in culture. To be noted: Yellow fever virus, BHK, read-out: YFV EC50.
Series [6] has as its system RSV. In words: microbe, parasite or virus in culture. To be noted: human respiratory syncytial virus, Vero 76, read-out: RSV EC50.
The test system of the next series is CVB-5. The series is described as follows: microbe, parasite or virus in culture. Format: cell-based, Coxsackievirus B5. Conditions: Enterovirus B, Vero 76, read-out: CVB-5 EC50.
A further series relates to Sb-1. In words: microbe, parasite or virus in culture. Conditions: Enterovirus C, Vero 76, read-out: Sb-1 EC50. The class given is cell-based, Poliovirus type-1, Sabin strain.
A further series deals with VV. In words: microbe, parasite or virus in culture. The class given is cell-based. To be noted: Orthopoxvirus vaccinia, Vero 76, read-out: VV EC50.
The next series relates to HSV-1. In words: microbe, parasite or virus in culture. Format: cell-based, human herpesvirus 1. Conditions: Human alphaherpesvirus 1, Vero 76, read-out: HSV-1 EC50.
A further series deals with VSV. In words: microbe, parasite or virus in culture. To be noted: Vesicular stomatitis virus, Vero 76, read-out: VSV EC50. Format: cell-based.
For series [7], the system named is YFV.
The nature of series [8]: in vitro. Conditions: Bos taurus (cattle).
Series [9] is described as follows: in vitro. Conditions: human.
For a further series, the system named is HIV-1. In words: microbe, parasite or virus in culture. To be noted: Human immunodeficiency virus 1, MT4, read-out: HIV-1 EC50.
In series [10] the test system is BVDV.
Series [11] deals with BVDV. The series is described as follows: microbe, parasite or virus in culture. Conditions: Bovine viral diarrhea virus isolates and strains, MDBK, read-out: BVDV EC50.
For the next series, the system named is Reo-1. The class given is cell-based, reovirus type-1.
In series [12] the test system is DENV-2.
Series [13] deals with WNV.
Series [14] has as its system DENV-2. In words: microbe, parasite or virus in culture. Conditions: Dengue virus, DENV2, BHK, read-out: DENV-2 EC50.
Series [15] has as its system WNV. In words: microbe, parasite or virus in culture. Conditions: West Nile virus, BHK, read-out: WNV EC50.

“Also recorded” adds a separate entry of the source.

For `O=c1cnn([C@@H]2O[C@H](CO)[C@@H](O)[C@H]2O)c(=O)[nH]1` [6-Azauridine, reference compound], the “Effect on YFV titer, compound added post infection” value in the series with YFV [1] is “lost its effectiveness when added after the infection”. Further, in the series on YFV [1], the “Effect on YFV titer, compound present in pre-treatment or during infection” value is given as “reduced the YFV titer when present in the pre-treatment or during the 2 h of infection”. The “SI CC50/EC50 (RSV)” value in the series on RSV [2] is 7.2. The CC50 in the series “in vitro [3]” is greater than 100 µM; in the series “in vitro [4]” it was 9.3 ± 1.6 µM. For the same compound, the figures for the EC50 in the series with YFV [5] and in the series with RSV [6] were 46 ± 1.5 µM and 1.3 ± 0.3 µM, respectively.
Turning to `O=S(=O)(c1ccccc1)n1cc(CNc2ccc(Br)cc2)c(-c2ccccc2)n1` [7c, 4-Bromo-N-[(3-phenyl-1-(phenylsulfonyl)-1H-pyrazol-4-yl)methyl]aniline], the melting point was 122 °C. Also, the EC50 with CVB-5 amounted to 24 ± 11 µM. The EC50 in the series with Sb-1 is greater than 85 µM. The EC50 in the series with VV was greater than 85 µM. The EC50 with HSV-1 is greater than 85 µM. Moreover, in the series on VSV, the EC50 was greater than 85 µM. In addition, the “SI CC50/EC50 (YFV)” value with YFV [7] was greater than 16.9. The compound further returned a CC50 in the series “in vitro [3]” greater than 100 µM. This compound also yielded a CC50 in “in vitro [8]” greater than 100 µM. In “in vitro [9]”, this compound displayed a CC50 of 20 µM. For the same compound, the EC50 in the series on YFV [5] was determined as 5.9 ± 0.2 µM. In addition, the EC50 in the series on RSV [6] was greater than 3 µM. The EC50 in the series with HIV-1 was greater than 20 µM.
Consider `O=S(=O)(c1ccccc1)n1cc(CNc2ccccc2)c(-c2ccc(Br)cc2)n1` [7e, N-[(3-(4-Bromophenyl)-1-(phenylsulfonyl)-1H-pyrazol-4-yl)methyl]aniline], for which the melting point lay in the range of 110 to 111 °C. Further, the EC50 with CVB-5 was greater than 87 µM. Further, in the series with Sb-1, the EC50 was greater than 87 µM. Moreover, in the series with VV, the EC50 was greater than 87 µM. Moreover, the EC50 with HSV-1 was greater than 87 µM. In the series with VSV, the EC50 is greater than 87 µM. For the same compound, in the series with YFV [1], the “Effect on YFV titer, compound added post infection” value is “achieved the highest reduction of virus titer when added 2 h post infection and maintained up to 4 h post infection; also recorded: retained its inhibitory activity when added at any time p.i; also recorded: highest reduction of virus yield was observed when 7e was added 2 h post infection and maintained up to 4 h post infection”; the “Effect on YFV titer, compound present in pre-treatment or during infection” value is on record as “reduced the YFV titer when present in the pre-treatment or during the 2 h of infection”. The “SI CC50/EC50 (BVDV)” value in the series with BVDV [10] is listed as greater than 5.1. The “SI CC50/EC50 (YFV)” value with YFV [7] is recorded as greater than 27.8. Also, the “SI CC50/EC50 (RSV)” value with RSV [2] is 4.9. This compound also returned a CC50 in “in vitro [3]” greater than 100 µM. Besides, the CC50 in the series “in vitro [8]” was greater than 100 µM. The CC50 in “in vitro [4]” is 87 ± 1 µM. The compound also came in with a CC50 in “in vitro [9]” greater than 100 µM. Also, the EC50 in the series on BVDV [11] is 19.5 ± 2.1 µM. Besides, in the series on YFV [5], the EC50 turned out to be 3.6 ± 0.8 µM. Further, in the series with RSV [6], the EC50 is 17.8 ± 1.8 µM. Besides, the EC50 with HIV-1 worked out at 20 ± 2.4 µM.
The compound `C[C@@]1(O)[C@H](O)[C@@H](CO)O[C@H]1n1ccc(N)nc1=O` [NM107, 2′-C-methylcitidine] registered an EC50 in the series with Reo-1 of 7.5 ± 1.5 µM. Moreover, the CC50 with BHK-21 cells is greater than 100 µM.
Regarding `C[C@@]1(O)[C@H](O)[C@@H](CO)O[C@H]1n1cnc2c(=O)[nH]c(N)nc21` [NM 108, 2′-C-methylguanosin, reference compound], the “SI CC50/EC50 (DENV-2)” value in the series on DENV-2 [12] was determined as 50.0. The “SI CC50/EC50 (WNV)” value with WNV [13] is recorded as 85.7. For the same compound, the CC50 in the series “in vitro [3]” was 60 ± 3 µM. For the same compound, the EC50 came to 1.2 ± 0.1 µM with DENV-2 [14] and 0.7 ± 0.2 µM in the series on WNV [15].

What is called EC50 is the concentration that produces a half-maximal response. In general, melting point refers to the temperature of the solid-liquid transition.

The values are drawn from publication PMC6465675, “Design, Synthesis, Antiviral Evaluation, and SAR Studies of New 1-(Phenylsulfonyl)-1H-Pyrazol−4-yl-Methylaniline Derivatives” (Frontiers in Chemistry, 2019).
